Consider 6 compounds from patent US9981929B2, “Method for prevention of premature polymerization” (NITTO BELGIUM NV, priority 2015, dated 2018).

The nature of data set [1]: Synthesis of SMA via transesterification in the presence of the inhibitors. Conditions: 500 ppm inhibitor. The procedure:
SMA is prepared via transesterification in the presence of the indicated inhibitors. A two-neck flask, equipped with a Dean-Stark apparatus and a reflux condenser, is charged with three equivalents of methyl methacrylate, one equivalent of stearyl/palmityl alcohol and 500 ppm of inhibitor. Air is bubbled through the solution using a needle, septum and vacuum pump, set at 900 mbar.
The methyl methacrylate/methanol azeotrope is collected and at the end of the reaction any remaining methyl methacrylate is removed under reduced pressure at the rotavapor.

A short description of data set [2]: Kugelrohr distillation (purification) of SMA in the presence of the inhibitors. The note with it: 500 ppm inhibitor, 10 g SMA, kugelrohr 240 °C, about 0.2 mbar; visual viscosity increase. Here is the method: The temperature of the kugelrohr is set to 240° C. The distillation starts when the vacuum reached about 0.2 mbar. Polymerization in the rotating pitch is evaluated by visually determining increased viscosity.
The inhibitors were added as such to the SMA prior to the distillation, no methanolic solution as described earlier is used.

[3] abbreviates: end of reaction after removal of methanol and excess methyl methacrylate.

For `CN(C)c1ccc2nc3ccc(=[N+](C)C)cc-3sc2c1` [MB, methylene blue], the “Properties end (color of the reaction mixture)” value in data set [1] (setting [3]) was “brown liquid”. Also, the “Properties start (color of the reaction mixture)” value in data set [1] (start of reaction) is “dark blue solution”.
With `CC(C)(C)c1cc(OCCCS(=O)(=O)[O-])c(C(C)(C)C)cc1O.CN(C)c1ccc2nc3ccc(N(C)C)cc3[s+]c2c1` [Inhibitor I-4], the “Properties end (color of the reaction mixture)” value in data set [1] (setting [3]) is given as “purple liquid”. Also, the “Properties start (color of the reaction mixture)” value in data set [1] (start of reaction) is given as “deep purple solution”. For the same compound, in data set [2], the Polymerization result is “no”.
In the case of `CCCCCCCCS(=O)(=O)[O-].CN(C)c1ccc2nc3ccc(N(C)C)cc3[s+]c2c1.[Cl-].[Na+]` [Inhibitor I-1a], the Polymerization entry in data set [2] is “no”.
The same measure, in the same setting: to `CCCCCCCCS(=O)(=O)[O-].CN(C)c1ccc2nc3ccc(N(C)C)cc3[s+]c2c1` [Inhibitor I-1, octanesulfonate salt of methylene blue] belongs “no”.
Turning to `COc1ccc(O)cc1` [MeHQ, 4-methoxyphenol], in data set [1] (setting [3]), the “Properties end (color of the reaction mixture)” value is recorded as “yellow liquid white” and the “Properties end (precipitate / solubility of catalyst/inhibitor)” value is given as “precipitate (catalyst)”. In data set [1] (start of reaction), the “Properties start (color of the reaction mixture)” value is “colorless solution” and the “Properties start (solubility of catalyst/inhibitor)” value is given as “homogeneous”.
In the case of `CCCCCCCCCCCCCCCCS(=O)(=O)[O-].CN(C)c1ccc2nc3ccc(N(C)C)cc3[s+]c2c1.[Cl-].[Na+]` [Inhibitor I-2a], the “Properties end (color of the reaction mixture)” value in data set [1] (setting [3]) is given as “brown liquid very”. Also, the “Properties start (color of the reaction mixture)” value in data set [1] (start of reaction) is recorded as “dark blue solution”. Also, the Polymerization result in data set [2] is given as “no”.
